In PMC4396868 (Birth defects research. Part A, Clinical and molecular …, 2014):

Target: bovine folate binding protein (bFBP) (Bos taurus, UniProt P02702)
Experiment: competitive binding ELISA, displacement of folic acid-HRP, chemiluminescence

Sequence of bovine folate binding protein (bFBP) (P02702 20-234): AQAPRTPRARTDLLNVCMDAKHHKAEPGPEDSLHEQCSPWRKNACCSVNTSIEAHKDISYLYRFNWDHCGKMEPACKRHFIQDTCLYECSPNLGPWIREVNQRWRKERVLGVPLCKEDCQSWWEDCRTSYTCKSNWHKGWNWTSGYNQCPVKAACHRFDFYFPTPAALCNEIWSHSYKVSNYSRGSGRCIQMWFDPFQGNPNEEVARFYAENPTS

- IC50: 269 mM
SMILES: CCCC(CCC)C(=O)O [Valproic acid]
